Assay results: patent US10435405B2, “Pyrazolopyridine compounds and uses thereof” (Incyte Corporation, priority 2016, dated 2019)

The molecules below were run against HPK1 (Homo sapiens (Human), UniProt Q92918) (assay: HPK1 Kinase Binding Assay).
In short: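 This is a LanthaScreen tracer-binding format: a tracer 222/Eu-anti-GST antibody mix (18 nM and 4 nM solution) is added to active HPK1 (4 nM solution) with 3-fold, 11-point compound dilutions. Incubation is 1 h at 25 °C in HEPES pH 7.5 buffer before reading, and Ki is determined.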

HPK1, sequence (Q92918 1-346): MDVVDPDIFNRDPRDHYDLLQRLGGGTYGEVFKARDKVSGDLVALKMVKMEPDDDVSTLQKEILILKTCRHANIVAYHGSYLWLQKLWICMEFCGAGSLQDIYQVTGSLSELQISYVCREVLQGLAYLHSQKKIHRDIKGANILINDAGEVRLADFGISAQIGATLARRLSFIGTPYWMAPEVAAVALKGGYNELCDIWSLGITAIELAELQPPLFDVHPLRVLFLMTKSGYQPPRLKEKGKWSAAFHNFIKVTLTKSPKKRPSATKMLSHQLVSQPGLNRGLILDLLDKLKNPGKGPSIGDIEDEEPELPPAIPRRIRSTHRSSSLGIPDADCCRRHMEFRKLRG

Ki, ≤ 100 nM:
CCn1cc(-c2n[nH]c3cnc(-c4c(C)cc(C5CCCCN5)cc4F)cc23)cn1 (single isomer, unassigned) [Example 230, 3-(1-Ethyl-1H-pyrazol-4-yl)-5-(2-fluoro-6-methyl-4-(piperidin-2-yl)phenyl)-1H-pyrazolo[3,4-c]pyridine]
COc1cccc(F)c1-c1cc2c(NC(=O)c3ccc(F)c(F)c3)n[nH]c2cn1 [Example 12, 3,4-Difluoro-N-(5-(2-fluoro-6-methoxyphenyl)-1H-pyrazolo[3,4-c]pyridin-3-yl)benzamide]
COCCNC(=O)c1cc(F)c(-c2cc3c(-c4cnn(C)c4)n[nH]c3cn2)c(F)c1 [Example 57, 3,5-Difluoro-N-(2-methoxyethyl)-4-(3-(1-methyl-1H-pyrazol-4-yl)-1H-pyrazolo[3,4-c]pyridin-5-yl)benzamide]
CN(C)c1cc(F)c(-c2cc3c(-c4cnn(C)c4)n[nH]c3cn2)c(F)c1 [Example 63, 3,5-Difluoro-N,N-dimethyl-4-(3-(1-methyl-1H-pyrazol-4-yl)-1H-pyrazolo[3,4-c]pyridin-5-yl)aniline]
COc1cccc(F)c1-c1cc2c(NC(=O)c3ccc(N4CCN(C)CC4)cc3)n[nH]c2cn1 [Example 26, N-(5-(2-Fluoro-6-methoxyphenyl)-1H-pyrazolo[3,4-c]pyridin-3-yl)-4-(4-methylpiperazin-1-yl)benzamide]
COc1cccc(F)c1-c1cc2c(-n3cnc(C(=O)NC(C)C)c3)n[nH]c2cn1 [Example 104, 1-(5-(2-Fluoro-6-methoxyphenyl)-1H-pyrazolo[3,4-c]pyridin-3-yl)-N-isopropyl-1H-imidazole-4-carboxamide]
CCN1CCN(c2ccc(NC(=O)c3n[nH]c4cnc(-c5c(F)cccc5OC)cc34)cc2)CC1 [Example 56, N-(4-(4-Ethylpiperazin-1-yl)phenyl)-5-(2-fluoro-6-methoxyphenyl)-1H-pyrazolo[3,4-c]pyridine-3-carboxamide]
Cc1c(CNC(C)C)ccc(F)c1-c1cc2c(-c3cnn(C)c3)n[nH]c2cn1 [Example 93, N-(4-Fluoro-2-methyl-3-(3-(1-methyl-1H-pyrazol-4-yl)-1H-pyrazolo[3,4-c]pyridin-5-yl)benzyl)propan-2-amine]
Cc1cccc(F)c1-c1cc2c(NC(=O)c3ccc(N4CCN(C)CC4)cc3NCC(C)O)n[nH]c2cn1 (centres unmarked) [Example 158, N-(5-(2-Fluoro-6-methylphenyl)-1H-pyrazolo[3,4-c]pyridin-3-yl)-2-(2-hydroxypropylamino)-4-(4-methylpiperazin-1-yl)benzamide]
Cc1cc(CNCC(F)(F)F)cc(F)c1-c1cc2c(-c3cnn(C)c3)n[nH]c2cn1 [Example 179, 2,2,2-Trifluoro-N-(3-fluoro-5-methyl-4-(3-(1-methyl-1H-pyrazol-4-yl)-1H-pyrazolo[3,4-c]pyridin-5-yl)benzyl)ethanamine]
COc1cccc(F)c1-c1cc2c(N3CCN(c4ccncc4)CC3)n[nH]c2cn1 [Example 40, 5-(2-Fluoro-6-methoxyphenyl)-3-(4-(pyridin-4-yl)piperazin-1-yl)-1H-pyrazolo[3,4-c]pyridine]
Cc1cc(CN2CCC(O)C2)cc(F)c1-c1cc2c(-c3cnn(C)c3)n[nH]c2cn1 (centres unmarked) [Example 183, 1-(3-Fluoro-5-methyl-4-(3-(1-methyl-1H-pyrazol-4-yl)-1H-pyrazolo[3,4-c]pyridin-5-yl)benzyl)pyrrolidin-3-ol]
Cn1cc(-c2n[nH]c3cnc(-c4c(F)cc(OCc5ccncc5)cc4F)cc23)cn1 [Example 108, 5-(2,6-Difluoro-4-(pyridin-4-ylmethoxy)phenyl)-3-(1-methyl-1H-pyrazol-4-yl)-1H-pyrazolo[3,4-c]pyridine]
CN1CCN(c2ccc(C(=O)Nc3n[nH]c4cnc(-c5c(F)cccc5C(F)(F)F)cc34)cc2)CC1 [Example 153, N-(5-(2-Fluoro-6-(trifluoromethyl)phenyl)-1H-pyrazolo[3,4-c]pyridin-3-yl)-4-(4-methylpiperazin-1-yl)benzamide]
Cn1cc(-c2n[nH]c3cnc(-c4c(F)cc(CNCCO)cc4F)cc23)cn1 [Example 126, 2-(3,5-Difluoro-4-(3-(1-methyl-1H-pyrazol-4-yl)-1H-pyrazolo[3,4-c]pyridin-5-yl)benzylamino)ethanol]
COc1cccc(F)c1-c1cc2c(NC(=O)c3cccc(N4CCN(C)C(=O)C4)c3)n[nH]c2cn1 [Example 19, N-(5-(2-Fluoro-6-methoxyphenyl)-1H-pyrazolo[3,4-c]pyridin-3-yl)-3-(4-methyl-3-oxopiperazin-1-yl)benzamide]
COc1cccc(F)c1-c1cc2c(NC(=O)c3cccc(N4CCNCC4)c3)n[nH]c2cn1 [Example 23, N-(5-(2-fluoro-6-methoxyphenyl)-1H-pyrazolo[3,4-c]pyridin-3-yl)-3-(piperazin-1-yl)benzamide]
CNCc1cc(C)c(-c2cc3c(-c4cnn(-c5ccccc5C#N)c4)n[nH]c3cn2)c(F)c1 [Example 135, 2-(4-(5-(2-Fluoro-6-methyl-4-((methylamino)methyl)phenyl)-1H-pyrazolo[3,4-c]pyridin-3-yl)-1H-pyrazol-1-yl)benzonitrile]
CCn1cc(-c2n[nH]c3cnc(-c4c(C)cc(C5CCCCN5)cc4F)cc23)cn1 (single isomer, unassigned) [Example 231, 3-(1-Ethyl-1H-pyrazol-4-yl)-5-(2-fluoro-6-methyl-4-(piperidin-2-yl)phenyl)-1H-pyrazolo[3,4-c]pyridine]
CN1CCN(c2ccc(C(=O)Nc3n[nH]c4cnc(-c5c(F)cc(CN6CCCC6)cc5F)cc34)cc2)CC1 [Example 141, N-(5-(2,6-Difluoro-4-(pyrrolidin-1-ylmethyl)phenyl)-1H-pyrazolo[3,4-c]pyridin-3-yl)-4-(4-methylpiperazin-1-yl)benzamide]
CNC(=O)c1cn(-c2n[nH]c3cnc(-c4c(F)cccc4OC)cc23)cn1 [Example 105, 1-(5-(2-Fluoro-6-methoxyphenyl)-1H-pyrazolo[3,4-c]pyridin-3-yl)-N-methyl-1H-imidazole-4-carboxamide]
COC1CCCN(Cc2ccc(F)c(-c3cc4c(-c5cnn(C)c5)n[nH]c4cn3)c2F)C1 (centres unmarked) [Example 130, 5-(2,6-Difluoro-3-((3-methoxypiperidin-1-yl)methyl)phenyl)-3-(1-methyl-1H-pyrazol-4-yl)-1H-pyrazolo[3,4-c]pyridine]
Cc1cc(C2CCCCN2)cc(F)c1-c1cc2c(-c3cnn(C4CC4)c3)n[nH]c2cn1 (single isomer, unassigned) [Example 232, 3-(1-Cyclopropyl-1H-pyrazol-4-yl)-5-(2-fluoro-6-methyl-4-(piperidin-2-yl)phenyl)-1H-pyrazolo[3,4-c]pyridine]
CC(=O)NCc1cc(C)c(-c2cc3c(-c4cnn(C)c4)n[nH]c3cn2)c(F)c1 [Example 191, N-(3-Fluoro-5-methyl-4-(3-(1-methyl-1H-pyrazol-4-yl)-1H-pyrazolo[3,4-c]pyridin-5-yl)benzyl)acetamide]
COc1cc(NC(=O)CN2CC(C)(C)C2)cc(F)c1-c1cc2c(-c3cnn(C)c3)n[nH]c2cn1 [Example 75, 2-(3,3-Dimethylazetidin-1-yl)-N-(3-fluoro-5-methoxy-4-(3-(1-methyl-1H-pyrazol-4-yl)-1H-pyrazolo[3,4-c]pyridin-5-yl)phenyl)acetamide]
CNC1CCCc2c1ccc(F)c2-c1cc2c(-c3ccc(N4CCN(C)CC4)nc3)n[nH]c2cn1 (centres unmarked) [Example 240, 6-Fluoro-N-methyl-5-(3-(6-(4-methylpiperazin-1-yl)pyridin-3-yl)-1H-pyrazolo[3,4-c]pyridin-5-yl)-1,2,3,4-tetrahydronaphthalen-1-amine]
COc1cccc(F)c1-c1cc2c(/C=C/c3ccc(Br)cc3)n[nH]c2cn1 [Example 116, 3-(4-Bromostyryl)-5-(2-fluoro-6-methoxyphenyl)-1H-pyrazolo[3,4-c]pyridine]
CNC1(c2cc(F)c(-c3cc4c(-c5cnn(C)c5)n[nH]c4cn3)c(F)c2)CC1 [Example 137, 1-(3,5-Difluoro-4-(3-(1-methyl-1H-pyrazol-4-yl)-1H-pyrazolo[3,4-c]pyridin-5-yl)phenyl)-N-methylcyclopropanamine]
Cn1cc(-c2n[nH]c3cnc(-c4c(F)cc(OC5CCOCC5)cc4F)cc23)cn1 [Example 107, 5-(2,6-Difluoro-4-(tetrahydro-2H-pyran-4-yloxy)phenyl)-3-(1-methyl-1H-pyrazol-4-yl)-1H-pyrazolo[3,4-c]pyridine]
Cc1c(CNCC2(C)CC2)ccc(F)c1-c1cc2c(-c3cnn(C)c3)n[nH]c2cn1 [Example 224, N-(4-Fluoro-2-methyl-3-(3-(1-methyl-1H-pyrazol-4-yl)-1H-pyrazolo[3,4-c]pyridin-5-yl)benzyl)-1-(1-methylcyclopropyl)methanamine]
CC(C)NCc1cc(F)c(-c2cc3c(C(=O)Nc4ccc(N5CCN(C)CC5)cc4)n[nH]c3cn2)c(F)c1 [Example 155, 5-(2,6-Difluoro-4-((isopropylamino)methyl)phenyl)-N-(4-(4-methylpiperazin-1-yl)phenyl)-1H-pyrazolo[3,4-c]pyridine-3-carboxamide]
Cc1cccc(F)c1-c1cc2c(NC(=O)c3ccc(N4CCN(C)CC4)cc3)n[nH]c2cn1 [Example 152, N-(5-(2-Fluoro-6-methylphenyl)-1H-pyrazolo[3,4-c]pyridin-3-yl)-4-(4-methylpiperazin-1-yl)benzamide]
